Holding throughout (format): physicochemical
A short description of data set [1]: Solid state stability of the trihydrochloride salt forms. Particulars: humidity lowered down to 10% r.h. The text has this: Under standard conditions the crystalline trihydrochloride salt form of N-[trans-4-[4-(cyclopropylmethyl)-1-piperazinyl]cyclohexyl]-4-[[(7R)-7-ethyl-5,6,7,8-tetrahydro-5-methyl-8-(1-methylethyl)-6-oxo-2-pteridinyl]amino]-3-methoxy-benzamide is present in the form of an hydrate and is obtainable after drying with a changing stoichiometry (1-3 water equivalents). The hydrate with a stoichiometry close to a trihydrate seems to be the stable hydrated form under ambient conditions and can be obtained after conditioning of the dried material. The crystal water is tightly bound.
The respective anhydrous form, obtained by heating a sample up to 140° C., is not stable.

The nature of data set [2]: Hygroscopical behaviour, water sorption isotherms (DVS-1). Particulars: 25° C. The procedure: To study the hygroscopical behaviour of this material, sorption isotherms are registered on a DVS-1 water sorption monitor from Surface Measurement Systems. Adsorption and desorption isotherms are performed at 25° C. with 10% r.h. step intervals ranging from 10% r.h. up to 90% r.h.

The nature of data set [3]: Intrinsic dissolution rate in aqueous media (rotating disc method). The note with it: 37° C., 200 rpm. The procedure:
The intrinsic dissolution rate of this crystalline form of the compound […] which maintains a constant surface area. 5 mg drug substance is compressed to form a disc at 356.1 N for 60 s. These discs are mounted to specially designed sample holders which fit into a Sotax dissolution tester. The dissolution media (37° C.) are stirred at 200 rpm. Samples are automatically withdrawn every second minute from the dissolution vessel and assayed via UV spectrophotometry. The intrinsic dissolution rate expressed in μg/cm^2/min is calculated using the slope of the concentration versus time plot and from the linear portion of the slope of the dissolution curve, volume of dissolution medium (35 ml) and area (diameter: 2 mm) of the exposed disk.

Data set [4] in a line: Solubility in aqueous media. An excerpt:
Solubility in Aqueous Media

Molecules are shown by their SMILES.

On to `CC[C@@H]1C(=O)N(C)c2cnc(Nc3ccc(C(=O)N[C@H]4CC[C@H](N5CCN(CC6CC6)CC5)CC4)cc3OC)nc2N1C(C)C.Cl.Cl.Cl.O.O.O` [formula (I) trihydrochloride, N-[trans-4-[4-(cyclopropylmethyl)-1-piperazinyl]cyclohexyl]-4-[[(7R)-7-ethyl-5,6,7,8-tetrahydro-5-methyl-8-(1-methylethyl)-6-oxo-2-pteridinyl]amino]-3-methoxy-benzamide trihydrochloride trihydrate], for which, in data set [1], the “weight loss on lowering the humidity” value was “does not result in a significant weight loss”.
In the case of `CC[C@@H]1C(=O)N(C)c2cnc(Nc3ccc(C(=O)N[C@H]4CC[C@H](N5CCN(CC6CC6)CC5)CC4)cc3OC)nc2N1C(C)C` [formula (I), N-[trans-4-[4-(cyclopropylmethyl)-1-piperazinyl]cyclohexyl]-4-[[(7R)-7-ethyl-5,6,7,8-tetrahydro-5-methyl-8-(1-methylethyl)-6-oxo-2-pteridinyl]amino]-3-methoxy-benzamide], the “hygroscopicity (in words)” value in data set [2] (10% r.h. up to 90% r.h.) is reported as “not hygroscopic”. The “reversibility of the water-uptake” value in data set [2] (adsorption and desorption isotherms) is “completely reversible”. Moreover, in data set [2] (over the range 10-90% r.h.), the uptake of water entry is recorded as “approx. 0.7%”. The dissolution rate in data set [3] (pH of aqueous medium 1.1) was 6600 μg/cm^2/min; in data set [3] (pH of aqueous medium 3.1), 2760 μg/cm^2/min; in data set [3] (pH of aqueous medium 4.1), 1810 μg/cm^2/min; in data set [3] (pH of aqueous medium 5.0), 1390 μg/cm^2/min; in data set [3] (pH of aqueous medium 6.1), 1180 μg/cm^2/min; in data set [3] (pH of aqueous medium 7.5), below 50 μg/cm^2/min. Moreover, the solubility (commonly the dissolved amount per volume that the medium holds) in data set [4] (Sörensen buffer, aqueous buffer, thermodynamic from solid, Sörensen pH 9.0, pH of the saturated solution 9.2) is 3 µg/mL; in data set [4] (Sörensen buffer, aqueous buffer, thermodynamic from solid, Sörensen pH 10, pH of the saturated solution 9.9) it was 7 µg/mL; in data set [4] (Sörensen buffer, aqueous buffer, thermodynamic from solid, Sörensen pH 11, pH of the saturated solution 10.5), 9 µg/mL; in data set [4] (aqueous buffer, thermodynamic from solid, McIlvaine buffer pH 2.2, pH of the saturated solution 2.8) it was above 10000 µg/mL; in data set [4] (aqueous buffer, thermodynamic from solid, McIlvaine buffer pH 3.0, pH of the saturated solution 3.6), above 10000 µg/mL; in data set [4] (aqueous buffer, thermodynamic from solid, McIlvaine buffer pH 4.0, pH of the saturated solution 4.6), above 10000 µg/mL. Also, the solubility in data set [4] (aqueous buffer, thermodynamic from solid, McIlvaine buffer pH 5.0, pH of the saturated solution 5.5) was above 10000 µg/mL; in data set [4] (aqueous buffer, thermodynamic from solid, McIlvaine buffer pH 6.0, pH of the saturated solution 6.3), above 10000 µg/mL; in data set [4] (aqueous buffer, thermodynamic from solid, McIlvaine buffer pH 7.0, pH of the saturated solution 7.2), above 10000 µg/mL; in data set [4] (aqueous buffer, thermodynamic from solid, McIlvaine buffer pH 7.4, pH of the saturated solution 7.4) it was 2500 µg/mL; in data set [4] (pH 1.1, simulated gastric fluid, thermodynamic from solid, medium 0.1 N HCl, pH of the saturated solution 1.1), above 10000 µg/mL; in data set [4] (pH 6.8, simulated gastric fluid, thermodynamic from solid, medium 0.01 N HCl, pH of the saturated solution 6.8), 7600 µg/mL. Besides, the solubility in data set [4] (pH 9.6, thermodynamic from solid, medium water, pH of the saturated solution 9.6) was 110 µg/mL; in data set [4] (pH 11.7, aqueous buffer, thermodynamic from solid, 0.01 N NaOH, pH of the saturated solution 11.7), 8 µg/mL; in data set [4] (pH 12.8, aqueous buffer, thermodynamic from solid, 0.01 N NaOH (second line), pH of the saturated solution 12.8), 3 µg/mL; in data set [4] (phosphate buffer, aqueous buffer, thermodynamic from solid, Phosphate pH 6.0, pH of the saturated solution 6.5) it was above 10000 µg/mL; in data set [4] (phosphate buffer, aqueous buffer, thermodynamic from solid, Phosphate pH 7.0, pH of the saturated solution 7.3), 10000 µg/mL; in data set [4] (phosphate buffer, aqueous buffer, thermodynamic from solid, Phosphate pH 8.0, pH of the saturated solution 8.1), 36 µg/mL. For the same compound, the “solubility profile in aqueous media (conclusion in words)” value in data set [4] (aqueous media of Table 1) is given as “good solubility profile”.

The record behind these values is patent US8329695B2, “Crystalline form of the free base N-[trans-4-[4-(cyclopropylmethyl)-1-piperazinyl]cyclohexyl]-4-[[(7r)-7-ethyl-5,6,7,8-tetrahydro-5-methyl-8-(1-methylethyl)-6-oxo-2-pteridinyl]amino]-3-methoxy-benzamide” (Boehringer Ingelheim International GmbH, priority 2007, dated 2012).
